Data as given in paper PMC5741288 (Pain Reports, 2016).

Tested on: capsaicin-induced flare
Test: Block of topical capsaicin-induced flare in rats
Type: in vivo, Sprague Dawley rats

Estimated plasma exposure associated with ED50 (rat, data not shown): 0.0676 ± 0.0449 µg/mL
SMILES: CC(C)(O)c1ccccc1-c1ccc2[nH]c(/C=C/c3ccc(C(F)(F)F)cc3)nc2c1 [JNJ-39439335, trans-2-(2-{2-[2-(4-Trifluoromethyl-phenyl)-vinyl]-1H-benzimidazol-5-yl}-phenyl)-propan-2-ol]
Capsaicin-induced flare (pretreatment 0.3–30 mg/kg, p.o.): blocked the capsaicin-induced flare in a dose-dependent fashion
Flare response induced by 1000 μg topical capsaicin (rat, single oral dose of 10 mg/kg): completely blocked
